Key:
[1] = Solubility of the ligand in supercritical CO2 (weight loss of glass tube after static SFE); assay type: physicochemical; settings: 60° C.; for Solubility in SF—CO2: approx. 60 mg ligand, 2.2 ml 100% SF—CO2, static 30 minutes, 200 and 300 atmospheres
Description: The solubility of the ligand of the comparative Examples (a)-(c) in supercritical CO2 was compared with the solubilities of the ligands of Examples 1 and 2 and 3 in supercritical CO2.
In each case, a weighed amount of the ligand of the respective comparative Example of approximately 60 mg was placed in a glass tube (2 cm×0.5 cm i.d.) and plugged with glass wool at both ends. The glass tube was placed inside the extraction vessel and statically extracted for 30 minutes. The inlet valve for SF—CO2 was then closed and the outlet valve opened into a collecting solution. The loss of weight of the glass tube after SFE corresponded to the solubility of the ligand in 2.2 ml 100% SF—CO2. The procedure was carried out at 60° C. and two different pressures namely 200 and 300 atmospheres.

[2] = Supercritical fluid extraction of Au(III) as AuCl4^− from filter paper, gold determined by atomic absorption spectroscopy; settings: observed after Au(III) SFE runs, 20 mg ligand
Description: Gold Au(III) extraction by the ligand of the comparative Example (a) was investigated employing a BDH Gold (III) standard containing 1000 ppm Au(III) (aqueous AuCl4^−). Thus 60 μl of solution Au(III) containing 3.05×10^−7 moles Au(III) was applied to a 3 cm diameter filter paper. The filter paper was allowed to dry and then placed in a glass tube (2 cm×0.5 cm i.d.), plugged with glass wool at both ends. 20 mg of ligand of the comparative Example (a) (in excess of over 200 fold over Au(III) level) was then placed in the same glass tube and plugged with glass wool.
The extraction vessel was statically extracted for 20 minutes and then dynamically extracted into a collecting solvent of 4 ml methanol for 15 minutes (0.8 ml CO2/minute flow rate). The methanol solution was then made up to 10 ml using additional methanol. Levels of gold in solution were then determined by atomic absorption spectroscopy. The procedure was carried out at different pressures from 200-400 atm. The following extraction percentages were obtained:
The procedure in Example 5(a) was repeated except the temperature of the extraction procedure was varied from 60-120° C., while maintaining the pressure of the extractor at 400 atm. The following results were obtained:
The procedure in Example 6 was repeated with the ligand from Example 1 being used in place of the ligand of the Comparative Example (a). The following % extraction values were obtained at differing pressures for extraction of Au(III):
The procedure of Example 7 was repeated employing the ligand of Example 2 in place of the ligand of Example 1 and utilising 50 μl Au(III) standard solution in place of 60 μl to give the following % extraction results at differing pressures of SF—CO2 at 60° C.

Row | Solubility in SF—CO2 (ligand remaining in glass tube after extraction runs) [2] | Structure (SMILES) | Solubility in SF—CO2 [1] | solubility at 30 min ([1]; supercritical CO2, organic solvent or mixture, thermodynamic from solid, larger amounts of ligand, both pressures (200 and 300 atmospheres), read-out: Solubility in SF—CO2)
1 | poor solubility | CCCCCCCCCCCCNC(=S)NC [Comparative Example (c), N-methyl, N′-dodecyl thiourea] |  | 
2 | poor solubility | CCCCCCCCNC(=S)NC [Comparative Example (b), N-methyl,N′-octyl thiourea] |  | 

Continued, molecule first:

Row | Structure (SMILES) | Solubility in SF—CO2 (ligand remaining in glass tube after extraction runs) [2] | Solubility in SF—CO2 [1] | solubility at 30 min ([1]; supercritical CO2, organic solvent or mixture, thermodynamic from solid, larger amounts of ligand, both pressures (200 and 300 atmospheres), read-out: Solubility in SF—CO2)
3 | FC(F)(F)CNC(=S)Nc1cc(C(F)(F)F)cc(C(F)(F)F)c1 [Example 2] |  | excellent solubility | 
4 | NC(=S)Nc1cc(C(F)(F)F)cc(C(F)(F)F)c1 [Comparative Example (a)] | poor solubility |  | 
5 | FC(F)(F)c1cc(NC(=S)NCC(F)(F)C(F)(F)C(F)(F)F)cc(C(F)(F)F)c1 [Example 1] |  | excellent solubility | 
6 | CNC(=S)NCC(F)(F)C(F)(F)C(F)(F)F [Example 3(b), N-methyl, N′-heptafluorobutyl thiourea] |  | excellent solubility | > 700 mM
7 | FC(F)(F)c1cc(NC(=S)NCC(F)(F)C(F)(F)C(F)(F)C(F)(F)C(F)(F)C(F)(F)C(F)(F)F)cc(C(F)(F)F)c1 [Example 3(a)] |  | excellent solubility | 
